Data as given in article PMC8453745, “Human Mass Balance and Metabolite Profiling of [^14C]‐Pamiparib, a Poly (ADP‐Ribose) Polymerase Inhibitor, in Patients With Advanced Cancer” (Clinical Pharmacology in Drug Development, 2021).

Key:
Assay type in all cases: in vivo, human
[1] = metabolite profiling in pooled feces (radioprofiling, LC‐MS); settings: pooled feces
Procedure: (§1) Total radioactivity concentrations of [^14C]‐pamiparib in whole blood, plasma, urine, and feces were determined by liquid scintillation counting (LSC). Radioactivity in each sample was measured for 5 minutes using a Packard Tri‐Carb liquid scintillation counter model 2100TR, 2900TR, or 3100TR (Canberra Packard, Pangbourne, Berks, Australia) with the facilities for computing quench‐corrected disintegrations per minute. Metabolite identification in plasma, urine, and feces was conducted by LC‐MS. Quantitation of the metabolites present in plasma, urine, and feces was based on the profiles of radioactivity. The limit of quantitation for radioactivity in plasma, urine, and feces was set at 1% of each chromatographic analysis (run) and 10 counts per minute (cpm) peak height; therefore, radioactive peaks that were <1% of the total run or <10 cpm peak height were reported as not detected. In addition, pamiparib and standards were reported, regardless of the percentage of run or peak height.
Portions of fecal homogenates (about 200‐500 mg) were subjected to combustion analysis prior to LSC. For metabolite profiling, feces samples collected 0‐24, 24‐48, 48‐72, 72‐96, and 96‐120 hours postdose were pooled by individual patient to generate 0‐ to 120‐hour pooled samples including 0.5% of each sample by weight. Feces were pooled per patient (if required) according to the appropriate 24‐hour collection period. The samples were homogenized in deionized water, avoiding excessive dilution (data on file). The radioactivity in each pooled sample was determined by LSC. The total amount of feces collected was factored into the recovery calculation. Approximately 1.6 to 2.7 g of each pooled feces sample was extracted twice with 6 mL of 0.1% formic acid in ACN. […] The combined supernatants were evaporated to dryness under nitrogen and reconstituted in 300 μL of MeOH. […] The reconstituted samples were analyzed by LC‐MS, with eluent fractions collected, and radiochemical profiles were generated based on radioactivity counts. […]

[2] = metabolite profiling in pooled urine (radioprofiling, LC‐MS); settings: pooled urine
Procedure: as §1
Each aliquot of urine (about 1 mL, weighed) was added directly to liquid scintillant prior to LSC. For metabolite profiling, urine samples collected 0‐4, 4‐8, 8‐12, 12‐24, 24‐48, 48‐72, and 72‐96 hours postdose were pooled by individual patient to generate 0‐ to 96‐hour pooled samples including 0.2% of each sample by weight. The radioactivity in each pooled sample was determined by LSC. The total amount of urine collected was factored into the recovery calculation. […] Pooled urine samples were analyzed by LC‐MS, with eluent fractions collected at 10‐second intervals into 96‐well plates containing solid scintillant. Radioactivity in each well was determined using TopCount analysis, and radiochemical profiles were generated based on radioactivity counts.
Metabolic profiling was performed on plasma, urine, and feces samples using LC‐MS. Shimadzu/Nexera LC‐30AD pumps and Shimadzu/Prominence DGU‐20A5R degasser were used with Shimadzu/Prominence controller CBM‐20A. The high‐pressure liquid chromatograph (HPLC) was equipped with an autoinjector (Shimadzu/Nexera SIL‐30ACMP) set at 10°C and a fraction collector (Leap Technologies PAL HTC‐xt) set at 15°C. Thermo Fisher Scientific Q Exactive was the mass spectrometer system.

[3] = total radioactivity in plasma of patients (LSC)
Text: Part 1 of the study included a screening phase of up to 28 days prior to drug administration to assess eligibility. Patients were admitted to the clinical research unit (CRU) at Royal Liverpool University Hospital (Liverpool, UK)/Clatterbridge Cancer Centre NHS Foundation Trust (Bebington, Wirral, UK) on day −1 and received a single dose of 60‐mg/100 μCi [^14C]‐pamiparib orally the morning of day 1. Patients remained in the CRU until completion of assessments on day 7, when discharge criteria of ≈90% of the radioactive dose being recovered or <1% of the radioactive dose being recovered in urine and feces for 2 consecutive 24‐hour collection intervals were met. If discharge criteria were not met by day 7, patients collected 24‐hour excreta samples up to day 14 on an outpatient basis. Part 2 of the study, evaluating the safety/tolerability and antitumor activity of 60 mg twice‐daily pamiparib in patients with advanced and/or metastatic solid tumors, is ongoing and is not included in this report.
Patients fasted overnight and 2 hours after oral administration of a single 60‐mg dose containing ≈100 μCi (3.7‐3.9 MBq) of [^14C]‐pamiparib with ≈240 mL of room‐temperature water or juice (orange or grape). The residual radioactivity present in each vial postdose was corrected from the dose. The radioactive dose of 100 μCi of [^14C]‐pamiparib provided minimum risk to patients according to the dosimetry calculation from a quantitative whole‐body autoradiography study in male and female Long Evans rats; the dose also provided sufficient signal for total radioactivity counting and quantitative radioprofiling in blood, plasma, and excreta (data on file). […]
Total radioactivity was analyzed at Covance Laboratories (Harrogate, North Yorkshire, UK), and metabolite profiling was conducted at Covance Laboratories (Madison, Wisconsin). Determination of pamiparib concentrations in plasma and total radioactivity in plasma and whole blood was performed predose and 0.25, 0.5, 1, 1.5, 2, 2.5, 3, 6, 12, 24, 48, 72, 96, 120, and 144 hours postdose. Pamiparib concentrations in plasma and urine were determined at Covance Laboratories (Salt Lake City, Utah) with validated liquid chromatography‐tandem mass spectrometry (LC‐MS/MS) methods.
Total radioactivity concentrations of [^14C]‐pamiparib in whole blood, plasma, urine, and feces were determined by liquid scintillation counting (LSC). Radioactivity in each sample was measured for 5 minutes using a Packard Tri‐Carb liquid scintillation counter model 2100TR, 2900TR, or 3100TR (Canberra Packard, Pangbourne, Berks, Australia) with the facilities for computing quench‐corrected disintegrations per minute. […] Quantitation of the metabolites present in plasma, urine, and feces was based on the profiles of radioactivity. […]

SMILES: C[C@]12CCCN1CC1=NNC(=O)c3cc(F)cc4[nH]c2c1c34 [Pamiparib]
- dose quantified in feces [1]: 17.5 % of the dose
- dose quantified in urine [2]: 52.5 % of the dose
- geometric mean AUC0‐t of pamiparib (LC‐MS/MS) as percent of total radioactivity in plasma [3]: ~69.9%
- geometric mean AUC0‐∞ of pamiparib (LC‐MS/MS) as percent of total radioactivity in plasma [3]: ~69.4%
- geometric mean Cmax of pamiparib (LC‐MS/MS) as percent of total radioactivity in plasma [3]: ≈ 91.6%
- AUC0‐∞ ratio plasma pamiparib/total radioactivity, geometric mean (CV%) ([3]; n = 4): 0.694 (2.7)
